Bridge positions count the residues as written; N and C are the ends. Square brackets hold non-standard residues; d marks the D form. Peptide text beside a SMILES is read from it. R8 = C=CCCCCCC[C@@](C)(N)C(=O)O; S5 = C=CCCC[C@](C)(N)C(=O)O; Nle = CCCC[C@H](N)C(=O)O
Key:
[1] = biological target: T1, flag-tagged HIF1α (AA 786-826) / His6-tagged p300 (AA 323-423) complex (Homo sapiens, UniProt Q09472); assay: HIF1α p300 displacement assay (TR FRET, +CHAPS); assay type: binding; settings: read-out: IC50 (nM) (HIF1α_p300 Displacement + CHAPS)
T1 construct: His6-tagged p300 (AA 323-423); made in house; host or cells: E. coli (pETDuet vector)
Procedure, shortened: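 The co-expressed flag-HIF1α (786-826)/His6-p300 (323-423) complex, purified from E. coli with 0.1 mM ZnSO4, was used at 300 nM final with competitor peptides for 1 h at room temperature. Buffer was 150 mM NaCl, 20 mM HEPES pH 7.4, 7.5 mM CHAPS and 1 mM DTT. Anti-Flag-K (0.5 μM) and anti-His-D2 (4 nM) were then added for 2 h, and IC50s were fitted from the TR-FRET ratio.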

HRE-bla ME-180 cells [2] = assay: Reporter gene assay (HRE-bla ME-180 HIF reporter, GeneBLAzer); assay type: cell-based, human; settings: for EC50: 24 hour normoxia
Procedure, shortened: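 A FRET β-lactamase readout of HIF transcription was used. After compound treatment in 0.3% DMSO/media under normoxic conditions, 20 μl of 6× LiveBLAzer-FRET B/G (CCF4-AM) substrate was added. Plates sat 3 hr at room temperature in the dark and were read at 409 Ex/460Em and 409Ex/530Em on a Synergy 2. Inhibition was compared against DMSO vehicle controls, with chetomin as positive control.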

HRE-bla ME-180 cells [3] = assay: Cell proliferation assay (viability, MTT, 1% FBS); assay type: cell-based, human
Procedure, shortened: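 ME-180 cells (2×10^4/well) in Opti-MEM with 1% FBS were pretreated 16 h under normoxia (21% O2), vehicle 0.5% DMSO final. Incubation then continued under normoxia or hypoxia (1% O2); viable cells quantified by MTT-type CellTiter 96 assay.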

SMILES	IC50 [1] [nM]	EC50 (HRE-bla ME-180 cells [2]) [µM]	18 h Avg % max inhibition at top conc (HIF Rptr-24 hrs normoxia) (μM) (HRE-bla ME-180 cells [2])	Viability 1% FBS AVG (MTT V3-24 hr Normoxia) (μM) (HRE-bla ME-180 cells [3])
CCCC[C@H](NC(=O)[C@H](CC(C)C)NC(=O)[C@@H](NC(=O)[C@H](CCC(=O)O)NC(=O)[C@H](CCC(=O)O)NC(=O)[C@H](CC(=O)O)NC(=O)[C@@H](NC(=O)[C@H](CC(N)=O)NC(=O)[C@@H](NC(=O)[C@H](CCC(N)=O)NC(=O)[C@H](CC(=O)O)NC(=O)[C@H](CC(C)C)NC(=O)[C@]1(C)CCCC=CCCC[C@](C)(NC(=O)[C@H](CCC(=O)O)NC(=O)CNC(=O)[C@H](CCC(N)=O)NC(=O)[C@H](CC(C)C)NC(=O)[C@H](CC(C)C)NC(C)=O)C(=O)N[C@@H](CC(C)C)C(=O)N[C@@H](CC(C)C)C(=O)N[C@@H](CCCNC(=N)N)C(=O)N1)C(C)C)[C@@H](C)CC)C(C)C)C(=O)N[C@@]1(C)CCCC=CCCC[C@@](C)(C(=O)N[C@@H](CCCC)C(=O)NCC(N)=O)NC(=O)[C@H]([C@@H](C)CC)NC(=O)[C@H](C(C)C)NC(=O)[C@H](CC(C)C)NC1=O [SP-307] (Ac-LLQGE[S5]LLR[S5]LDQVNIDEEVL[Nle][S5]LVI[S5][Nle]G-NH2; staple 6-10, 23-27)	> 700	> 30	+++ (≤25 but <50: +++)	++++ (≥30: ++++)
CC[C@H](C)[C@H](NC(=O)[C@H](Cc1ccccc1)NC(C)=O)C(=O)N[C@@H](CC(=O)O)C(=O)N[C@@H](CCC(=O)O)C(=O)N[C@@H](CCC(=O)O)C(=O)N[C@H](C(=O)N[C@@H](CC(C)C)C(=O)N[C@@H](CCSC)C(=O)N[C@@]1(C)CCCC=CCCC[C@@](C)(C(=O)N[C@@H](CCSC)C(=O)N[C@@H](C)C(=O)N[C@@H](CC(C)C)C(=O)N[C@@H](CC(=O)O)C(=O)N[C@@H](CCCNC(=N)N)C(N)=O)NC(=O)[C@H]([C@@H](C)CC)NC(=O)[C@H](C(C)C)NC(=O)[C@H](CC(C)C)NC1=O)C(C)C [SP-281] (Ac-FIDEEVLM[S5]LVI[S5]MALDR-NH2; staple 9-13)	400 to 700	5 to 15	++++ (≥50: ++++)	++++ (≥30: ++++)
CCCC[C@H](NC(=O)[C@H](CCC(=O)O)NC(=O)[C@]1(C)CCCC=CCCCCCC[C@@](C)(NC(=O)[C@H](CCC(=O)O)NC(=O)[C@H](CC(=O)O)NC(=O)[C@@H](NC(=O)[C@H](CC(N)=O)NC(=O)[C@@H](NC(=O)[C@H](CCC(N)=O)NC(=O)[C@]2(C)CCCC=CCCC[C@](C)(NC(=O)[C@H](CC(C)C)NC(=O)[C@H](C)NC(=O)[C@H](CCC(=O)O)NC(=O)CNC(=O)[C@H](CCC(N)=O)NC(=O)[C@H](CC(C)C)NC(=O)[C@H](CC(C)C)NC(C)=O)C(=O)N[C@@H](CCCNC(=N)N)C(=O)N[C@@H](C)C(=O)N[C@@H](CC(C)C)C(=O)N2)C(C)C)[C@@H](C)CC)C(=O)N[C@@H](C(C)C)C(=O)N[C@@H](CC(C)C)C(=O)N[C@@H](CCCC)C(=O)N[C@@H](CO)C(=O)N[C@@H](CC(C)C)C(=O)N[C@@H](C(C)C)C(=O)N1)C(N)=O [SP-361] (Ac-LLQGEAL[S5]RAL[S5]QVNIDE[R8]VL[Nle]SLV[S5]E[Nle]-NH2; staple 8-12, 19-26)	> 700	> 30	++ (≤10 but <25: ++)	++++ (≥30: ++++)
CCCC[C@H](NC(=O)[C@H](CC(C)C)NC(=O)[C@@H](NC(=O)[C@H](CCC(=O)O)NC(=O)[C@H](CCC(=O)O)NC(=O)[C@H](CC(=O)O)NC(=O)[C@@H](NC(=O)[C@H](CC(N)=O)NC(=O)[C@@H](NC(=O)[C@]1(C)CCCC=CCCC[C@](C)(NC(=O)[C@H](CC(C)C)NC(=O)[C@H](CC(C)C)NC(=O)[C@H](CCC(=O)O)NC(=O)[C@H](CCC(=O)O)NC(=O)CNC(=O)[C@H](CCC(N)=O)NC(=O)[C@H](CC(C)C)NC(=O)[C@H](CC(C)C)NC(C)=O)C(=O)N[C@@H](C)C(=O)N[C@@H](CC(C)C)C(=O)N[C@@H](CC(=O)O)C(=O)N1)C(C)C)[C@@H](C)CC)C(C)C)C(=O)N[C@@]1(C)CCCC=CCCC[C@@](C)(C(=O)N[C@@H](CCCC)C(=O)NCC(N)=O)NC(=O)[C@H]([C@@H](C)CC)NC(=O)[C@H](C(C)C)NC(=O)[C@H](CC(C)C)NC1=O [SP-340] (Ac-LLQGEELL[S5]ALD[S5]VNIDEEVL[Nle][S5]LVI[S5][Nle]G-NH2; staple 9-13, 23-27)	> 700	> 30	++ (≤10 but <25: ++)	++++ (≥30: ++++)
CCCC[C@H](NC(=O)[C@]1(C)CCCC=CCCC[C@](C)(NC(=O)[C@H](C)NC(=O)[C@H](Cc2ccccc2)NC(=O)[C@@H](NC(=O)[C@H](CCC(=O)O)NC(=O)[C@H](CCC(=O)O)NC(=O)[C@H](CC(=O)O)NC(=O)[C@@H](NC(=O)[C@H](Cc2ccccc2)NC(C)=O)[C@@H](C)CC)C(C)C)C(=O)N[C@@H](CC(C)C)C(=O)N[C@@H](C(C)C)C(=O)N[C@@H]([C@@H](C)CC)C(=O)N1)C(=O)N[C@@H](C)C(=O)N[C@@H](CC(C)C)C(=O)N[C@@H](CC(C)C)C(N)=O [SP-246] (Ac-FIDEEVFA[S5]LVI[S5][Nle]ALL-NH2; staple 9-13)	> 700	> 30	+ (<10: +)	++++ (≥30: ++++)
CC[C@H](C)[C@H](NC(=O)[C@H](CCCNC(=N)N)NC(=O)[C@H](CC(=O)O)NC(=O)[C@H](CC(C)C)NC(=O)[C@H](C)NC(=O)[C@H](CCSC)NC(=O)[C@]1(C)CCCC=CCCC[C@](C)(NC(=O)[C@H](CCSC)NC(=O)[C@H](CC(C)C)NC(=O)[C@@H](NC(=O)[C@H](Cc2c[nH]cn2)NC(=O)[C@H](CCC(=O)O)NC(=O)[C@H](CC(=O)O)NC(=O)[C@@H](NC(=O)[C@H](Cc2ccccc2)NC(C)=O)[C@@H](C)CC)C(C)C)C(=O)N[C@@H](CC(C)C)C(=O)N[C@@H](C(C)C)C(=O)N[C@@H]([C@@H](C)CC)C(=O)N1)C(N)=O [SP-284] (Ac-FIDEHVLM[S5]LVI[S5]MALDRI-NH2; staple 9-13)	400 to 700	5 to 15	+++ (≤25 but <50: +++)	++++ (≥30: ++++)

Further lines, with some results ahead:

IC50 [1] [nM]	EC50 (HRE-bla ME-180 cells [2]) [µM]	SMILES	18 h Avg % max inhibition at top conc (HIF Rptr-24 hrs normoxia) (μM) (HRE-bla ME-180 cells [2])	Viability 1% FBS AVG (MTT V3-24 hr Normoxia) (μM) (HRE-bla ME-180 cells [3])
200 to 400	> 30	CCCC[C@H](NC(=O)[C@H](CCC(=O)O)NC(=O)[C@]1(C)CCCC=CCCCCCC[C@@](C)(NC(=O)[C@H](CCC(=O)O)NC(=O)[C@H](CC(=O)O)NC(=O)[C@@H](NC(=O)[C@H](CC(N)=O)NC(=O)[C@@H](NC(=O)[C@H](CCC(N)=O)NC(=O)[C@H](CC(=O)O)NC(=O)[C@H](CC(C)C)NC(=O)[C@H](C)NC(=O)[C@]2(C)CCCC=CCCC[C@](C)(NC(=O)CNC(=O)[C@H](CCC(N)=O)NC(=O)[C@H](CC(C)C)NC(=O)[C@H](CC(C)C)NC(C)=O)C(=O)N[C@@H](CCC(=O)O)C(=O)N[C@@H](CC(C)C)C(=O)N[C@@H](CC(C)C)C(=O)N2)C(C)C)[C@@H](C)CC)C(=O)N[C@@H](C(C)C)C(=O)N[C@@H](CC(C)C)C(=O)N[C@@H](CCCC)C(=O)N[C@@H](CO)C(=O)N[C@@H](CC(C)C)C(=O)N[C@@H](C(C)C)C(=O)N1)C(=O)NCC(N)=O [SP-343] (Ac-LLQG[S5]ELL[S5]ALDQVNIDE[R8]VL[Nle]SLV[S5]E[Nle]G-NH2; staple 5-9, 19-26)	+ (<10: +)	++++ (≥30: ++++)
200 to 400	5 to 15	CCCC[C@H](NC(=O)[C@H](Cc1ccccc1)NC(=O)[C@@H](NC(=O)[C@H](CCC(=O)O)NC(=O)[C@H](CCC(=O)O)NC(=O)[C@H](CC(=O)O)NC(=O)[C@@H](NC(=O)[C@H](Cc1ccccc1)NC(C)=O)[C@@H](C)CC)C(C)C)C(=O)N[C@@]1(C)CCCC=CCCC[C@@](C)(C(=O)N[C@@H](CCCC)C(=O)N[C@@H](C)C(=O)N[C@@H](CC(C)C)C(=O)N[C@@H](CC(=O)O)C(=O)N[C@@H](CCCNC(=N)N)C(=O)N[C@H](C(N)=O)[C@@H](C)CC)NC(=O)[C@H]([C@@H](C)CC)NC(=O)[C@H](C(C)C)NC(=O)[C@H](CC(C)C)NC1=O [SP-265] (Ac-FIDEEVF[Nle][S5]LVI[S5][Nle]ALDRI-NH2; staple 9-13)	++++ (≥50: ++++)	++++ (≥30: ++++)
≤ 200	> 30	CCCC[C@@H]1NC(=O)[C@H](CC(C)C)NC(=O)[C@](C)(NC(=O)[C@H](CCC(=O)O)NC(=O)[C@H](CCC(=O)O)NC(=O)[C@H](CC(=O)O)NC(=O)[C@@H](NC(=O)[C@H](Cc2ccccc2)NC(C)=O)[C@@H](C)CC)CCCCCCC=CCCC[C@@](C)(C(=O)N[C@@H](CCCC)C(=O)N[C@@H](C)C(=O)N[C@@H](CC(C)C)C(=O)N[C@@H](CC(=O)O)C(=O)N[C@@H](CCCNC(=N)N)C(=O)N[C@H](C(N)=O)[C@@H](C)CC)NC(=O)[C@H]([C@@H](C)CC)NC(=O)[C@H](C(C)C)NC(=O)[C@H](CC(C)C)NC(=O)[C@H](CO)NC1=O [SP-200] (Ac-FIDEE[R8]L[Nle]SLVI[S5][Nle]ALDRI-NH2; staple 6-13)	++++ (≥50: ++++)	++++ (≥30: ++++)

Reference: patent US20190225650A1, “PEPTIDOMIMETIC MACROCYCLES AND USE THEREOF IN REGULATING HIF1ALPHA” (AILERON THERAPEUTICS, INC., priority 2013, published 2019)
